The results in this text go back to patent US20220163532A1, “NUCLEAR-DERIVED EXOSOMES AND METHODS OF USE THEREOF” (Board of Regents, The University of Texas System, priority 2019, published 2022).

Experiment [1] concerns OVCAR-5 and OVCAR-8 cells. The experiment is described as follows: DNA-positive exosomes (nExo) from drug-treated ovarian cancer cells by imaging flow cytometry. The note with it: topotecan 10 nM or olaparib 20 μM, parental cells treated 48 hours, vs DMSO. It is filed as cell-based, human. The method, then: Isolation of exosomes. The isolation method for exosomes that was used in this study followed the standard methods of the International Society of Extracellular Vesicles (Witwer et al., 2013). Cell lines described above were grown in the corresponding medium described above until 60 to 70% confluence was achieved. Cells were then washed twice with phosphate-buffered saline (PBS) and grown in corresponding medium containing 1% exosome-free FBS (EXO-FBS-250A-1, System Biosciences) plus 0.1% gentamicin for 48 hours. For exosome isolation, the harvested medium underwent serial centrifugation. First, the medium was spun down at 500g for 10 min to pellet any floating cells. Next, the supernatant was collected and spun down at 2000g for 30 min to pellet any residual cell debris. The resulting supernatant was then filtered through a 0.22-μm filter (SCGPUO5RE and SLGP033RS, Millipore-Sigma) to remove any remaining large vesicles. […] Exosome concentration and quantity were determined using NTA with a NanoSight NS300 instrument (Malvern Panalytical).
Exosome staining for imaging flow cytometry and analysis. For quantitative analysis and imaging flow cytometry of exosomes, the method described by Erdbrugger et al. (2014) using an Amnis ImageStreamX MarkII analyzer was adapted. […]
For orientation: In flow cytometry, cells or beads pass a laser one at a time.

In experiment [2] the test system is OVCAR-5 ovarian cancer model. The experiment is described as follows: nExos in serum and ascites of OVCAR-5 tumor-bearing mice by imaging flow cytometry. The class given is in vivo, mouse. The note with it: topotecan 7.5 mg/kg vs vehicle control. From the text:
Exosome staining for imaging flow cytometry and analysis. For quantitative analysis and imaging flow cytometry of exosomes, the method described by Erdbrugger et al. (2014) using an Amnis ImageStreamX MarkII analyzer was adapted. Briefly, 3×10^9 to 5×10^9 particles were isolated from either tissue culture cells, mouse serum and ascites, or serum obtained from patients with ovarian cancer and resuspended in PBS. Exosomes were placed in a sterile 1.5-ml Eppendorf tube and stained with CellMask Green Plasma Membrane (CMG) stain (1:250 dilution; C37608, Thermo Fisher Scientific) for 30 min at 37° C., protected from light. Exosomes were then washed to remove excess CMG by adding 2 ml of PBS and pelleted by ultracentrifugation at 40,000 rpm for 2 hours at 4° C. […]
To stain for dsDNA, CMG-stained exosomes were co-stained with DRAQ5 (62254, Thermo Fisher Scientific) at either 1:50 dilution for biofluid exosome samples or 1:250 dilution for cell culture samples and were lightly agitated at RT for 1 hour, protected from light. Samples were then placed on ice, and images of single exosomes were detected using the 60× objective of an Amnis ImageStreamX MarkII analyzer. […] Particle size was estimated using Invitrogen Flow Cytometry Submicron Particle Size Reference Beads (F13839, Thermo Fisher Scientific), allowing exclusion of particles <150 nm based on the signal detected from side scatter. […]

On to `CC[C@@]1(O)C(=O)OCc2c1cc1n(c2=O)Cc2cc3c(CN(C)C)c(O)ccc3nc2-1` [topotecan], for which the “population of exosomes containing gDNA (proportion of nExo secreted)” value in experiment [1] is given as “increased”. The nExos in ascites entry in experiment [2] (ascites, P=0.028) is “significant increase”. Also, the nExos in serum result in experiment [2] (serum) is “no difference”.
